In US20190375708A1 (VenatoRx Pharmaceuticals, Inc., priority 2018, published 2019):
pEC50: −log10 of the molar value. Read-outs that look alike come from different tables or passages of the source.

Assays:
HepG2 cells = test: In vitro cytotoxicity assay (MTT cell viability) in HepG2 cells; assay type: cell-based, human
How it was run: (§1)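 HepG2 seeded overnight, then 7-day compound exposure (30 μM–1.0 nM, half-log steps), 37 °C. MTT 3-4 h, DMSO solubilization, A492. % of vehicle → CC50, 4-PL fit.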

[1] = tested on: HBV replication in HepAD38 cells; test: Anti-HBV replication assay in HepAD38 cells (QPCR of extracellular HBV DNA); assay type: cell-based, HBV (genotype D, serotype ayw); conditions: 7 days incubation, extracellular HBV DNA by QPCR, read-out: Anti-HBV EC50
How it was run: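 Steps: seed HepAD38 overnight without tetracycline; refresh medium and add 1 log10 serial dilutions ([…]); incubate 7 days at 37 °C; quantify supernatant HBV DNA by QPCR; derive EC50 from a 4-parameter dose-response fit.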

[2] = In vitro cytotoxicity assay (MTT cell viability) in HepG2 cells; assay type: cell-based, human; conditions: human
How it was run: as §1

[3] = HepG2 cells, MTT cell viability, 7-day incubation, tested 30 μM to 1.0 nM, read-out: HepG2 CC50

Row | Compound | CC50 (HepG2 cells; [3]) [µM] | pEC50 [1] | CC50 (HepG2 cells) [µM] | CC50 at 7 days [2] [µM] | pEC50 ([1]; Hepatitis B virus, 168 h)
1 | Cc1cc(NC(=O)c2c(C)c(C(=O)C(=O)N[C@@H]3[C@@H]4C[C@@H]5C[C@H]3C[C@@](O)(C5)C4)n(C)c2C)ccc1F [Example 74, N-(4-fluoro-3-methylphenyl)-5-(2-(((1R,2s,3S,5s,7s)-5-hydroxyadamantan-2-yl)amino)-2-oxoacetyl)-1,2,4-trimethyl-1H-pyrrole-3-carboxamide] | > 30 | > 7.30 | – | – | –
2 | Cc1c(C(=O)Nc2ccc(F)nc2)c(C)n(C)c1C(=O)C(=O)NC12C[C@@H]3C[C@@H](CC(O)(C3)C1)C2 [Example 16, N-(6-fluoropyridin-3-yl)-5-(2-(((1r,3s,5R,7S)-3-hydroxyadamantan-1-yl)amino)-2-oxoacetyl)-1,2,4-trimethyl-1H-pyrrole-3-carboxamide] | 5 to 30 | 6.30 to 7.30 | – | – | –
3 | (S)-2-chloro-N-(4-fluoro-3- methylphenyl)-5-(2-((1- hydroxybutan-2-yl)amino)-2- oxoacetyl)-14-dimethyl-1H- pyrrole-3-carboxamide [Example 389] | 5 to 30 | < 6.00 | – | – | –
4 | (S)-4-chloro-N-(4-fluoro-3- methylphenyl)-5-(2-((1- hydroxybutan-2-yl)amino0-2- oxoacetyl)-1,2-dimethyl-1H- pyrrole-3-carboxamide [Example 368] | > 30 | 6.30 to 7.30 | – | – | –
5 | Cc1cc(NC(=O)c2c(Cl)c(C(=O)C(=O)NC3(CO)CC3)n3c2CCCC3)ccc1F [Example 491, 2-chloro-N-(4-fluoro-3-methylphenyl)-3-(2-((1-(hydroxymethyl)cyclopropyrl)amino)-2-oxoacetyl)-5,6,7,8-tetrahydroindolizine-1-carboxamide] | – | > 7.30 | > 30 | – | –
6 | Cc1cc(NC(=O)c2c(C)c(C(=O)C(=O)N3CCC(O)C(C)(C)C3)n(C)c2C)ccc1F (stereo not drawn) [Example 53, N-(4-fluoro-3-methylphenyl)-5-(2-(4-hydroxy-3,3-dimethylpiperidin-1-yl)-2-oxoacetyl)-1,2,4-trimethyl-1H-pyrrole-3-carboxamide] | – | – | – | > 30 | 6.30 to 7.30
7 | Cc1cc(NC(=O)c2c(C)c(C(=O)C(=O)NOC(C)(C)CO)n(C)c2C)ccc1F [Example 156, N-(4-fluoro-3-methylphenyl)-5-(2-(((1-hydroxy-2-methylpropan-2-yl)oxy)amino)-2-oxoacetyl)-1,2,4-trimethyl-1H-pyrrole-3-carboxamide] | – | – | – | > 30 | > 7.30
8 | Cc1cc(NC(=O)c2c(C)c(C(=O)NC(C)(C)CN3CCOCC3)n(C)c2C)ccc1F [Example 349, N4-(4-fluoro-3-methylphenyl)-1,3,5-trimethyl-N2-(2-methyl-1-morpholinopropan-2-yl)-1H-pyrrole-2,4-dicarboxamide] | – | – | – | > 30 | < 6.00
9 | Cc1cc(NC(=O)c2cc(C(=O)C(=O)NC(C)(C)C)n3c2CCCC3)ccc1F [Example 393, 3-(2-(tert-butylamino)-2-oxoacetyl)-N-(4-fluoro-3-methylphenyl)-5,6,7,8-tetrahydroindolizine-1-carboxamide] | – | – | – | > 30 | 6.30 to 7.30
10 | Cc1cc(NC(=O)c2c(C)c(C(=O)C(=O)N[C@H]3C[C@H](O)C3)n3c2CCCC3)ccc1F [Example 438, N-(4-fluoro-3-methylphenyl)-3-(2-(((1r,3r)-3-hydroxycyclobutyl)amino)-2-oxoacetyl)-2-methyl-5,6,7,8-tetrahydroindolizine-1-carboxamide] | – | – | – | > 30 | 6.30 to 7.30
11 | Cc1cc(NC(=O)c2c(C)c(C(=O)C(=O)NC3(CO)CCC3)n(C)c2C)ccc1F [Example 12, N-(4-fluoro-3-methylphenyl)-5-(2-((1-(hydroxymethyl)cyclobutyl)amino)-2-oxoacetyl)-1,2,4-trimethyl-1H-pyrrole-3-carboxamide] | – | – | – | > 30 | > 7.30
12 | Cc1c(C(=O)Nc2ccc(F)nc2)c(C)n(C)c1C(=O)C(=O)NC1(C(F)(F)F)CCOCC1 [Example 110, N-(6-fluoropyridin-3-yl)-1,2,4-trimethyl-5-(2-oxo-2-((4-(trifluoromethyl)tetrahydro-2H-pyran-4-yl)amino)acetyl)-1H-pyrrole-3-carboxamide] | – | – | – | > 30 | > 7.30
13 | Cc1cc(NC(=O)c2c(C)c(C(=O)C(=O)N[C@]3(C)C[C@@H](O)C3)n(C)c2C)ccc1F [Example 619] | – | – | – | > 30 | > 7.30
14 | Cc1cc(NC(=O)c2c(C)c(C(=O)C(=O)NC(C)(C)CN3CCOCC3)n(C)c2C)ccc1F [Example 291, N-(4-fluoro-3-methylphenyl)-1,2,4-trimethyl-5-(2-((2-methyl-1-morpholinopropan-2-yl)amino)-2-oxoacetyl)-1H-pyrrole-3-carboxamide] | – | – | – | > 30 | > 7.30
15 | Cc1cc(NC(=O)c2c(Cl)c(C(=O)C(=O)N[C@@H](C)C(F)(F)F)n3c2CCCC3)cnc1F [Example 731, (S)-2-chloro-N-(6-fluoro-5-methylpyridin-3-yl)-3-(2-oxo-2-((1,1,1-trifluoropropan-2-yl)amino)acetyl)-5,6,7,8-tetrahydroindolizine-1-carboxamide] | – | – | – | 5 to 30 | > 7.30
16 | Cc1cc(NC(=O)c2c(C)c(C(=O)C(=O)NC3(C(=O)NC(C)C)CCOCC3)n(C)c2C)ccc1F [Example 303, N-(4-fluoro-3-methylphenyl)-5-(2-((4-(isopropylcarbamoyl)tetrahydro-2H-pyran-4-yl)amino)-2-oxoacetyl)-1,2,4-trimethyl-1H-pyrrole-3-carboxamide] | – | – | – | > 30 | > 7.30
17 | CC(=O)N1CCn2c(C(=O)C(=O)NC(C)(C)C)cc(C(=O)Nc3ccc(F)c(C)c3)c2C1 [Example 590, 2-acetyl-6-(2-(tert-butylamino)-2-oxoacetyl)-N-(4-fluoro-3-methylphenyl)-1,2,3,4-tetrahydropyrrolo[1,2-a]pyrazine-8-carboxamide] | – | – | – | > 30 | 6.00 to 6.30
18 | Cc1cc(NC(=O)c2c(C)c(C(=O)C(=O)NC(C)(C)C)n(CCO)c2C)ccc1F [Example 71, 5-(2-(tert-butylamino)-2-oxoacetyl)-N-(4-fluoro-3-methylphenyl)-1-(2-hydroxyethyl)-2,4-dimethyl-1H-pyrrole-3-carboxamide] | – | – | – | > 30 | < 6.00
19 | Cc1cc(NC(=O)c2c(C)c(C(=O)C(=O)N[C@H]3CC[C@H](O)CC3)n(C)c2C)ccc1F [Example 246, N-(4-fluoro-3-methylphenyl)-5-(2-(((1r,4r)-4-hydroxycyclohexyl)amino)-2-oxoacetyl)-1,2,4-triemthyl-1H-pyrrole-3-carboxamide] | – | – | – | 5 to 30 | > 7.30
20 | Cc1cc(NC(=O)c2c(C)c(C(=O)C(=O)N[C@H]3C[C@@H](O)C3(C)C)n(C)c2C)ccc1F [Example 302, N-(4-fluoro-3-methylphenyl)-5-(2-(((1S,3R)-3-hydroxy-2,2-dimethylcyclobutyl)amino)-2-oxoacetyl)-1,2,4-trimethyl-1H-pyrrole-3-carboxamide] | – | – | – | > 30 | > 7.30
21 | Cc1c(C(=O)Nc2ccnc(F)c2)c(C)n(C)c1C(=O)C(=O)NC(C)(C)C [Example 89, 5-(2-(tert-butylamino)-2-oxoacetyl)-N-(2-fluoropyridin-4-yl)-1,2,4-trimethyl-1H-pyrrole-3-carboxamide] | – | – | – | > 30 | > 7.30
22 | Cc1cc(NC(=O)c2c(C)c(C(=O)C(=O)NC(C)C(F)(F)F)n(C)c2C)ccc1F (stereo not drawn) [Example 10, N-(4-fluoro-3-methylphenyl)-1,2,4-trimethyl-5-(2-oxo-2-((1,1,1-trifluoropropan-2-yl)amino)acetyl)-1H-pyrrole-3-carboxamide] | – | – | – | 5 to 30 | > 7.30
23 | Cc1c(C(=O)Nc2ccc(F)c(F)c2)c(Cl)c(C(=O)C(=O)NC2(C(F)(F)F)CC2)n1C [Example 376, 4-chloro-N-(3,4-difluorophenyl)-1,2-dimethyl-5-(2-oxo-2-((1-(trifluoromethyl)cyclopropyl)amino)acetyl)-1H-pyrrole-3-carboxamide] | – | – | – | 5 to 30 | > 7.30
24 | Cc1noc([C@@H](NC(=O)C(=O)c2c(Cl)c(C(=O)Nc3ccc(F)c(C)c3)c3n2CCC3)C(C)C)n1 [Example 543, (S)-6-chloro-N-(4-fluoro-3-methylphenyl)-5-(2-((2-methyl-1-(3-methyl-1,2,4-oxadiazol-5-yl)propyl)amino)-2-oxoacetyl)-2,3-dihydro-1H-pyrrolizine-7-carboxamide] | – | – | – | > 30 | > 7.30
25 | Cc1cc(NC(=O)c2c(C)c(C(=O)C(=O)NC3CCN(c4ccccn4)CC3)n(C)c2C)ccc1F [Example 657, N-(44-fluoro-3-methylphenyl)-1,2,4-trimethyl-5-(2-oxo-2-((1-(pyridin-2-yl)piperidin-4-yl)amino)acetyl)-1H-pyrrole-3-carboxamide] | – | – | – | 5 to 30 | > 7.30
26 | Cc1cc(NC(=O)c2c(C)c(C(=O)C(=O)N[C@H](C)C(F)(F)F)n3c2CCCC3)cnc1F [Example 469, (R)-N-(6-fluoro-5-methylpyridin-3-yl)-2-methyl-3-(2-oxo-2-((1,1,1-trifluoropropan-2-yl)amino)acetyl)-5,6,7,8-tetrahydroindolizine-1-carboxamide] | – | – | – | 5 to 30 | 6.00 to 6.30
27 | Cc1cc(NC(=O)c2c(C)c(C(=O)C(=O)NC34CC5CC(CC3C5)C4)n(C)c2C)cnc1F [Example 113, N-(6-fluoro-5-methylpyridin-3-yl)-5-(2-(((2R,3as,5S,6as)-hexahydro-2,5-methanopentalen-3a(1H)-yl)amino)-2-oxoacetyl)-1,2,4-trimethyl-1H-pyrrole-3-carboxamide] | – | – | – | > 30 | > 7.30
